Assay results: publication PMC5847048 (Psychopharmacology, 2017)

Tests used:
[1] = system: middle-aged mice (14–15 months old); assay: Contextual serial discrimination (CSD) task; format: in vivo, mouse; conditions: for Post hoc analysis of donepezil effect on SCM score for all S 47445 levels (Dunnett, versus vehicle group): all levels of S 47445 pooled
Procedure: (§1) Treatments were administered per os daily for nine consecutive days for studies involving the CSD and SA tasks. The 8th and the 9th oral administrations were given 60 min before acquisition and test phases in the CSD task, or before the training and the test sessions in the SA task.
The studies were carried out on mice according to the procedure described in full by Celerier et al. ([2004]) and Tronche et al. ([2010]) (Fig.1). Briefly, the mouse learns two consecutive spatial discriminations (D1 and D2) in a four hole-board apparatus (45 × 45 × 30 cm) enclosed with gray Plexiglas walls. The floor of the hole-board was interchangeable (white and rough versus black and smooth). On the floor, four holes opening on a food cup (3-cm diameter × 2.5-cm depth) were located 6 cm away from the sidewalls. Photocells located into the holes allowed an automatic recording of the number of head-dips in each hole.
Fig. 1 a Contextual serial discrimination: at the acquisition phase, mice performed two consecutive spatial discrimination sessions varying by the color and texture of the floor, i.e., D1, discrimination 1, and D2, discrimination 2. For each discrimination session, only one out of the four holes of the apparatus was baited (hashed circles). […] One hour prior to acquisition and test phases, mice received a per os administration of the compounds or vehicle solution in a chamber placed in a room (room C) different from the one in which the behavioral experiments were conducted (room A). Subsequently, mice were submitted to the test phase in which they were repositioned on the floor of the first discrimination without any food pellet in the apparatus. b Two types of responses were calculated: (i) correct responses corresponding to head-dips into the hole baited at the acquisition of the first discrimination (D1), on the same floor context; (ii) interference responses corresponding to head-dips into the hole baited at the other (second) discrimination (D2). Both parameters allow calculation of the SCM score
Mice were partially food-deprived for 1 week prior to experimentation and were maintained on a 12 ± 2% loss of their body weight throughout behavioral testing to increase motivation for food reward. During the food deprivation phase, mice were handled daily to familiarize them with the experimenter.
During the acquisition session, mice were first placed at the center of the board in a plastic tube for 15 s and then learned two successive spatial discriminations (D1 and D2) for 6 min each and were each separated by a 2-min interval. Between two sessions, each mouse was placed in its home cage in an animal housing room. For D1, ten 20-mg pellets were available only in one of the four holes in the board. For D2, ten 20-mg pellets were located in the opposite symmetrical hole. The environmental spatial cues remained at the same place for D1 and D2. Within each group, the floors used for the first and second discrimination (D1 and D2) were counterbalanced at the acquisition phase from one mouse to the other. A minimal amount of eight pellets should be eaten per mouse at either D1 or D2 during the acquisition phase.
During memory testing, D1 and D2 discriminations were performed in independent groups of mice, being replaced either on the floor of D1 or of D2. The food-deprived mice were replaced either on the floor of D1 or on the floor of D2. In each case, mice were allowed to explore the apparatus freely and performance was assessed by measuring the exploration for each hole for 6 min without any pellets in the apparatus. During the procedure, photocells allowed measurement of the number of head dips in each hole. Different parameters were further calculated: % of correct responses (head-dips into the hole previously baited on the same floor context), % of interfering responses (head-dips into the hole previously baited on the other floor context), and % of errors (head-dips into the two holes never previously baited).

[2] = system: aged mice (22–24 months old); assay: Radial maze working memory task; format: in vivo, mouse; conditions: donepezil 0.3 mg/kg s.c.; aged mice
Procedure: In the radial arm maze task, treatments were administered subcutaneously (s.c.) once a day 60 min prior to testing from the 2 days of habituation to the 12 days of memory testing.
The radial maze (Imetronic system, Pessac, France) was fully automated and enabled by video-tracking automatic testing and recording. Briefly, each mouse was separately assigned to six adjacent arms which were grouped into three pairs (A, B, C). These three pairs were presented repeatedly among the successive trials of each testing session. The location of the food reward varied in each pair according to an alternation rule among successive trials. Namely, among the two arms opened in a specific trial, the food was inserted in the arm which was not visited in the previous trial within the same pair. The mouse must therefore remember which of the two arms was visited in a specific trial until next presentation of the same pair, and so on in order to alternate its choice among successive presentations of any pair. At the beginning of each daily session, the mouse was placed in the central platform of the radial maze with all arms closed. One pair of arms only was opened at the beginning of each trial, and the mouse was required to visit one arm. The door of the non-chosen arm was closed as soon as the mouse reached the end of the chosen arm. The mouse was allowed to run back to the central platform of his own accord, and then, the door of the chosen arm was closed. The mouse remained in the central platform until the following trial (intertrial interval 10 s). Since three pairs were concurrently used, three specific arm visits must be kept in memory by the mouse until their utilization by using short-term working memory. After 2 days of free exploration in the maze (habituation), mice were submitted to 12 consecutive testing sessions: one session of 23 trials (3 “acquisition-only trials,” one by pair, and 20 “acquisition and test trials”) per day, i.e., a total of 276 trials (240 test trials).
Each session consisted of alternate presentations of pairs A, B, and C. The first three trials with each pair were acquisition trials (both arms rewarded). Each of the following trials was at the same time an acquisition trial (for the following trial with the same pair) and a test trial (for the arm visit made during the preceding trial with the same pair); the rewarded arm was the one that has not been visited on the preceding trial with the same pair. Memory demand varied across successive trials according to the retention interval RI (i.e., the number of intervening trials with other pairs between two successive presentations of the same pair). The retention interval for one specific arm visit (e.g., within pair A) depends on the number of concurring trials (i.e., with pairs B and C) occurring till next trial with the same pair (A). Indeed, such a variable amount of interposed trials proportionally increases the delay between acquisition and test and may also generate retroactive interference. There are five levels of retention interval: from 0, corresponding to “no interposed pair,” to 4, corresponding to a sequence of four interposed trials between n-1 and n trials.
During habituation, the time needed for visiting all six arms per session day was measured. During memory testing, memory performance was evaluated according to the percentage of correct alternation responses between successive trials with the same pair in three different manners.

[3] = system: aged mice (18–19 months old); assay: Sequential/spontaneous alternation (SA) working memory task in T-maze; format: in vivo, mouse; conditions: donepezil 0.1 mg/kg p.o. alone, ITI 90 s, n = 12
Procedure: as §1
The spontaneous alternation (SA) task was performed in independent groups of mice as regards to the CSD and radial maze tasks. The SA task allows investigation of aged-induced working memory impairments (Vandesquille et al. [2011]). In this task, mice are submitted to a series of successive choices in a T-maze. To alternate from trial to trial, animals have to remember at each choice (except the first one) only the previous trial and to reset the interfering information from trial to trial over a series. This resetting mechanism is a main aspect of working memory (Aggleton et al. [1986]; Béracochéa and Jaffard, [1987]; Kesner [2005]).
Behavioral tests were conducted in a gray Plexiglas T-maze. Stem and arms are 35 cm long, 15 cm wide, and 10 cm high. The starting box (10 cm × 12 cm) and each goal arm are separated from the central alley by a vertical sliding door, with opening and closing monitored by a computer. Photoelectric cells allow recording of both the choice of the goal arm (left or right) and the latency (in seconds) that elapsed between the opening of the starting box and the closing of the goal box. The T-maze is located at the center of a room with various allocentric cues (white or black or striped card boards) located on the wall 1 m above the apparatus.
Animals were not food deprived, and no food reinforcement was used. Animals were first submitted to a habituation phase consisting of two free exploration sessions of 10 min each, over two consecutive days (one session per day) in the apparatus with all doors opened. At the end of the habituation phase, all animals were submitted to a training phase, involving a series of seven successive trials separated by a 30-s intertrial interval (ITI). The training phase was aimed at familiarizing the animals with the opening and closing of the doors.
For the training session, animals were submitted to a sequence of seven successive identical trials. At the beginning of a trial, mice were placed in the starting box and after a confinement period (30 s, predefined ITI), the door to the stem was opened. When the mouse entered one of the goal arms, the door was closed and the chosen arm was recorded. After a 30-s confinement period in the chosen arm, the mouse was gently returned to the starting box for a second trial, identical to the first one. To avoid olfactory cues in the apparatus, visible traces of urine were removed and the general procedure was implemented as in the training phase, except that the ITI was extended to 90 s and animals were submitted to a series of […] successive trials. […] Moreover, an 8th trial was added to the series which was separated from the 7th one by a 5-s ITI. […] The alternation score (in percentage) was used as an index of memory performance. An alternation is defined as a visit in a given arm followed by a visit into the other arm. The successive sequence of visits for the seven first trials determines the level of alternation. A percentage of alternation was calculated: number of alternations performed/number maximal of alternation. This percentage is calculated for each mouse.
For the sequential alternation task, mean and standard errors of the mean (SEM) were calculated for each group of treatment. In addition to % alternation drawn over the seven trials of the series, behavioral performances were also expressed in percentage of alternation drawn from blocks of two consecutive trials (block 1: trials 2 + 3; block 2: trials 4 + 5; block 3: trials 6 + 7). The analyses per trial blocks allowed evaluation of proactive interference over the series (Vandesquille et al. [2011], [2013]). Statistical analyses were performed using the Statview 5.0 software. […]

[4] = system: aged mice (22–24 months old); set-up: method as in Marighetto et al., [2008b]; conditions: ref Marighetto et al., [2008b], cited from earlier work
[5] = system: mice; assay: Primary observation (Irwin) test; conditions: donepezil alone
From the text: Male Rj: C57BL/6J mice (Elevage Janvier, 53940 Le Genest-Saint-Isle, France), 23–27 g body weight range, were stabilized for at least 5 days after delivery in macrolon cages in groups of 10 (housing period) (25 × 19 × 13 cm) and then of 4 (starting the day before the test and during the test) in macrolon cages (25 × 19 × 13 or 32 × 13 × 14 cm) on wood litter with free access to food and water.
Between one and three treated groups were compared with the same control at any one time. […] In order to keep the same conditions, all the mice receiving a single treatment also received another administration with vehicle.
Behavioral modifications, physiological and neurotoxicity symptoms, and rectal temperature were recorded according to a standardized observation grid derived from that of Irwin. The grid contains the following items: death*, convulsions*, tremor*, Straub tail*, altered activity, excitation, jumping*, abnormal gait* (rolling, tip-toe), motor incoordination*, altered muscle tone, loss of grasping, akinesia, catalepsy, loss of traction, writhing*, piloerection*, stereotypies* (sniffing, chewing, head movements), head-twitches*, scratching*, altered respiration*, aggression*, altered fear, altered reactivity to touch, ptosis, exophthalmia, loss of righting reflex, loss of corneal reflex, analgesia, defecation/diarrhea, salivation, lacrimation, and rectal temperature (hypothermia/hyperthermia).

## COc1cc2c(cc1OC)C(=O)C(CC1CCN(Cc3ccccc3)CC1)C2 (centres unmarked) [Donepezil, reference compound]
[1]; Experiment 1 (study A and B), compounds alone, p> 0.10 in all analyses
  Total number of explorations and % exploration of the baited hole, acquisition phase: No significant between-groups difference
[1]; Experiment 1, S 47445 at all doses, donepezil at the active doses, versus middle-aged vehicle, data not shown
  Memory performance in the second discrimination (D2): did not alter memory performance
[1]; Experiment 1, versus vehicles (p > 0.10 in all comparisons), data not shown
  Total number of head-dips, test phase: no significant effect
[1]; Supplemental data 2, S 47445 0.03–0.3 mg/kg p.o. (p=0.951), Donepezil 0.03 and 0.1 mg/kg (p=0.074)
  SCM score of the second discrimination (D2), dose effect at pooled levels of the other drug: no significant effect
[1]; donepezil 0.03 mg/kg
  Post hoc analysis of donepezil effect on SCM score for all S 47445 levels (Dunnett, versus vehicle group): NS (p = 0.079) (NS p > 0.050)
[1]; donepezil 0.1 mg/kg
  Post hoc analysis of donepezil effect on SCM score for all S 47445 levels (Dunnett, versus vehicle group): *** (***p ≤ 0.001)
[2]
  Performance as a function of retention interval (RI 0–4) versus chance level: remained significantly above chance up to RI = 3
[3]
  Alternation score, 3rd block of trials (trials 6 + 7): 45.833 ± 4.167 n = 12%
  Alternation score, seven first trials of the series: alternated significantly above vehicles
[4]; donepezil 0.3 mg/kg i.p.
  Activity in radial maze working memory task: limited to the organizational component of the task
[4]; donepezil
  Active dose in the same working memory task: 0.3 mg/kg but not of 1 mg/kg was found to be active
[5]; 3 mg/kg p.o.
  Symptoms observed in the Irwin test: Tremor, hypothermia, and decreases in activity, abdominal muscle tone, and reactivity to touch
[5]; 10 mg/kg p.o.
  Additional symptoms observed in the Irwin test: Straub tail and abnormal gait (rolling)
[5]; dose range 3–10 mg/kg p.o., mice
  Observable effects in the Irwin test: clear and dose-dependent sedative/myorelaxant effects
